Experimental data reported in ChEMBL document CHEMBL3286241, “Dammarane-type triterpenoids from Gentianella azurea” (J Nat Prod, 2014).

System: RAW264.7
Experiment: Antiinflammatory activity in mouse RAW264.7 cells assessed as inhibition of LPS-induced NO production after 24 hrs by Griess assay
Assay type: functional, cell-based
Conditions: RAW264.7, 24 h

Row | IC50 [µM] | SMILES
1 | 6.6 | CC1(C)O[C@](C(=O)O)([C@H]2CC[C@]3(C)[C@@H]2CC[C@@H]2[C@@]4(C)CC[C@H](O[C@@H]5O[C@H](CO)[C@@H](O)[C@H](O)[C@H]5O)[C@](C)(CO)[C@@H]4CC[C@]23C)C[C@H](O)[C@@H]1O [GENTIRIGEOSIDE A]
2 | 1.25 | COc1ccc2c(c1)c(CC(=O)O)c(C)n2C(=O)c1ccc(Cl)cc1 [INDOMETHACIN]
